Three molecules from publication PMC9146984, “A Novel Proline-Rich Cathelicidin from the Alpaca Vicugna pacos with Potency to Combat Antibiotic-Resistant Bacteria: Mechanism of Action and the Functional Role of the C-Terminal Region” (Membranes, 2022) can be followed below.

The term IC50 denotes the midpoint of a concentration-inhibition curve.

≈ marks a conversion by molar mass, not a printed value. Where two headings read alike, the source gives them in different places. Where a SMILES comes first, the peptide text is derived from it. Bounds are passed on as bounds.

In series [1] the test system is E. coli BL21 (DE3) Star cell extract, coupled transcription/translation of EGFP. Description: In vitro transcription/translation inhibition assay (cell-free EGFP synthesis). The class given is biochemical, Escherichia coli. Particulars: EGFP fluorescence, 2 h, 30 °C; at least two independent experiments in triplicate; read-out: IC50, inhibition of in vitro protein synthesis in the E. coli cell-free system. Here is the method:
To investigate the effect of cathelicidins on the coupled transcription/translation process, the peptides were added to a cell-free protein synthesis (CFPS) reaction mix with a plasmid encoding enhanced green fluorescent protein (EGFP) variant (F64L, S65T, Q80R, F99S, M153T, and V163A) under control of the T7 promoter as described previously with some modifications. Briefly, the peptides were dissolved in 0.1% BSA in water. Bac7[1–22] was used as a positive control inhibitor. The fluorescence of the sample without inhibitor was set as the 100% value. The reaction proceeded for 2 h in 96-well v-bottom black polystyrene microplates in a plate shaker (30 °C, 1000 rpm). The fluorescence of the synthesized EGFP was measured with the microplate reader AF2200 (λExc = 488 nm, λEm = 510 nm; Eppendorf, Hamburg, Germany). The experimental data were obtained from at least two independent experiments performed in triplicate. Non-linear regression curves were generated using GraphPad Prism v.8.0.1 (GraphPad Software Inc., San Diego, CA, USA).

The test system of the next series is E. coli. The experiment in a line: Antimicrobial assay (MIC), E. coli strains. As to conditions: Mueller–Hinton broth without NaCl. The class given is cell-based, Escherichia coli. Here is the method: (§1) The reduction of resazurin to resorufin was measured.
The subject of series [2] is E. coli ML-35p cytoplasmic membrane. Description: Cytoplasmic membrane permeabilization (ONPG hydrolysis). The format is cell-based, Escherichia coli. As to conditions: PBS, 37 °C, OD405, 2.5 mM ONPG; two independent experiments. The method, then: To examine the ability of the peptides to affect the barrier function of the cytoplasmic bacterial membrane, we slightly modified the previously described procedure with the use of the E. coli ML-35p strain constitutively expressing cytoplasmic β-galactosidase but lacking lactose permease. The state of the E. coli ML-35p inner membrane was assessed based on its permeability to chromogenic marker o-nitrophenyl-β-D-galactopyranoside (ONPG, AppliChem, Darmstadt, Germany), which is the β-galactosidase substrate. The cells were incubated in the trypticase soy broth (TSB) for 16 h at 37 °C, washed three times with phosphate-buffered saline (PBS, pH 7.4) to remove residual growth media, adjusted to the concentration of 2.5 × 10^8 CFU/mL, and stored on ice until used. The assay was performed in PBS as well. The final concentration of E. coli ML-35p cells was 2.5 × 10^7 CFU/mL. The concentration of ONPG was 2.5 mM. Peptide samples were placed in the wells of a 96-well plate with a non-binding surface (NBS, Corning #3641), and the optical density (OD) of the solution rose due to the appearance of o-nitrophenol was measured at 405 nm using a microplate reader AF2200 (Eppendorf, Hamburg, Germany). The final volume in each well was 200 µL. Assays were performed at 37 °C under stirring at 500 rpm. Control experiments were performed under the same conditions without adding a peptide. Two independent experiments were performed, and the curve pattern was similar.

Series [3] concerns human red blood cells (hRBC). The experiment in a line: Hemolysis (hemoglobin release assay). Particulars: 1.5 h incubation (Figure 3C). The format is cell-based. The method, then:
Hemolytic activity of the peptides was tested against the fresh suspension of human red blood cells (hRBC) using the hemoglobin release assay as described previously. Two experiments were performed with the hRBC from blood samples of independent donors. The quantitative data were represented as average means with standard deviations. The colorimetric 3-(4,5-dimethylthiazol-2-yl)-2,5-diphenyltetrazolium bromide (MTT) dye reduction assay was used to determine the cytotoxicity of the peptides against transformed human embryonic kidney cells (HEK293T). 10^4 cells per well in Dulbecco’s modified Eagle’s medium (DMEM/F12) supplemented with 10% fetal bovine serum (FBS; Invitrogen, Waltham, MA, USA) were placed into 96-well plates and then cultured in the CO2-incubator (5% CO2, 37 °C). After the media were removed, the peptides were dissolved in 100 µL of the same medium and added to cell cultures at different final concentrations. 20 h later, 20 μL of MTT (5 mg/mL; Sigma, St. Louis, MO, USA) was added to each well, and the plates were incubated for 4 h at 37 °C. Then, the media were discarded and a 100 µL dimethyl sulfoxide-isopropanol mixture at a ratio of 1:1 (v/v) was added to each well to dissolve the crystallized formazan. The absorbance at 570 nm was measured by a microplate reader AF2200 (Eppendorf, Hamburg, Germany). […]

In series [4] the test system is human embryonic kidney cells (HEK293T). Description: Cytotoxicity (MTT assay). The class given is cell-based. As to conditions: HEK293T, 20 h incubation, MTT (Figure 3D). Here is the method:
Hemolytic activity of the peptides was tested against the fresh suspension of human red blood cells (hRBC) using the hemoglobin release assay as described previously. Two experiments were performed with the hRBC from blood samples of independent donors. The quantitative data were represented as average means with standard deviations. The colorimetric 3-(4,5-dimethylthiazol-2-yl)-2,5-diphenyltetrazolium bromide (MTT) dye reduction assay was used to determine the cytotoxicity of the peptides against transformed human embryonic kidney cells (HEK293T). 10^4 cells per well in Dulbecco’s modified Eagle’s medium (DMEM/F12) supplemented with 10% fetal bovine serum (FBS; Invitrogen, Waltham, MA, USA) were placed into 96-well plates and then cultured in the CO2-incubator (5% CO2, 37 °C). After the media were removed, the peptides were dissolved in 100 µL of the same medium and added to cell cultures at different final concentrations. 20 h later, 20 μL of MTT (5 mg/mL; Sigma, St. Louis, MO, USA) was added to each well, and the plates were incubated for 4 h at 37 °C. Then, the media were discarded and a 100 µL dimethyl sulfoxide-isopropanol mixture at a ratio of 1:1 (v/v) was added to each well to dissolve the crystallized formazan. The absorbance at 570 nm was measured by a microplate reader AF2200 (Eppendorf, Hamburg, Germany). The optical density in the wells containing cells cultured without the peptides was assumed to represent 100% cell viability. Two independent experiments were performed for each peptide.
For orientation: Tetrazolium dyes change colour on reduction, which living cells bring about.

A further series deals with E. coli ATCC 25922. The format is cell-based, Escherichia coli. As to conditions: ATCC 25922, 24 h. The method, then:
as §1

A further series has as its system E. coli BW25113 ΔmdtM. The format is cell-based, Escherichia coli. As to conditions: Mueller–Hinton broth, 24 h, 37 °C, median. Here is the method:
as §1

Another series deals with E. coli BW25113 ΔompF. The format is cell-based, Escherichia coli. As to conditions: Mueller–Hinton broth, 24 h, 37 °C, median. Here is the method:
as §1

A further series has as its system E. coli BW25113 ΔsbmA. The class given is cell-based, Escherichia coli. Particulars: Mueller–Hinton broth, 24 h, 37 °C, median. The method, then:
as §1

In a further series the test system is E. coli BW25113. The format is cell-based, Escherichia coli. As to conditions: BW25113, 24 h. The method, then: as §1

As for `CC[C@H](C)[C@H](NC(=O)[C@H](CCCNC(=N)N)NC(=O)[C@@H](N)CCCNC(=N)N)C(=O)N[C@@H](CCCNC(=N)N)C(=O)N[C@@H](CCCNC(=N)N)C(=O)N1CCC[C@H]1C(=O)N[C@@H](CCCNC(=N)N)C(=O)N[C@@H](CC(C)C)C(=O)N1CCC[C@H]1C(=O)N[C@@H](CCCNC(=N)N)C(=O)N1CCC[C@H]1C(=O)N[C@@H](CCCNC(=N)N)C(=O)N[C@H](C(=O)N1CCC[C@H]1C(=O)N[C@@H](CCCNC(=N)N)C(=O)N1CCC[C@H]1C(=O)O)C(C)C` [VicBac[1-16]] (H-RRIRRPRLPRPRVPRP-OH), the IC50 in series [1] is about 4 µM. The “killing of E. coli under salt-free conditions” value with E. coli is 4 to 8 µM.

In the case of Melittin [reference compound], the “effect on E. coli ML-35p cytoplasmic membrane permeability for ONPG” value in [2] is listed as “significant damage”. Moreover, the “concentration at which almost all cells were completely lysed” value in series [3] and in series [4] was under 4 µM in each case.

With `CC[C@H](C)[C@H](NC(=O)[C@H](CCCNC(=N)N)NC(=O)[C@@H]1CCCN1C(=O)[C@H](CCCNC(=N)N)NC(=O)[C@@H]1CCCN1C(=O)[C@@H](NC(=O)[C@H](CCCNC(=N)N)NC(=O)[C@@H]1CCCN1C(=O)[C@H](CCCNC(=N)N)NC(=O)[C@@H]1CCCN1C(=O)[C@H](CC(C)C)NC(=O)[C@H](CCCNC(=N)N)NC(=O)[C@@H]1CCCN1C(=O)[C@H](CCCNC(=N)N)NC(=O)[C@H](CCCNC(=N)N)NC(=O)[C@@H](NC(=O)[C@H](CCCNC(=N)N)NC(=O)[C@@H](N)CCCNC(=N)N)[C@@H](C)CC)C(C)C)C(=O)O` [VicBac[1-18]] (H-RRIRRPRLPRPRVPRPRI-OH; N-terminus and C-terminus assumed), the “Minimum inhibitory concentration, E. coli strain ATCC 25922” value in the series on E. coli ATCC 25922 is 2 µM (≈ 4.7 µg/mL). Also, the “Minimum inhibitory concentration, E. coli strain ΔmdtM” value with E. coli BW25113 ΔmdtM (0.9% NaCl: +) stood at 2 µM (≈ 4.7 µg/mL); with E. coli BW25113 ΔmdtM (0.9% NaCl: −), 4 µM (≈ 9.39 µg/mL). The “Minimum inhibitory concentration, E. coli strain ΔompF” value stood at 16 µM (≈ 37.6 µg/mL) in the series with E. coli BW25113 ΔompF (0.9% NaCl: +) and 8 µM (≈ 18.8 µg/mL) with E. coli BW25113 ΔompF (0.9% NaCl: −). Also, the “Minimum inhibitory concentration, E. coli strain ΔsbmA” value is over 64 µM in the series with E. coli BW25113 ΔsbmA (0.9% NaCl: +) and 4 µM (≈ 9.39 µg/mL) in the series with E. coli BW25113 ΔsbmA (0.9% NaCl: −). Besides, the “Minimum inhibitory concentration, E. coli strain BW25113” value with E. coli BW25113 turned out to be 4 µM (≈ 9.39 µg/mL).
